From patent publication US20240254118A1, “PRMT5 INHIBITORS AND USES THEREOF” (Gilead Sciences, Inc., priority 2022, published 2024)

Legend:
[1] = test system: SDMA signal (PRMT5 inhibition) in HCT116 MTAP-deleted cells; experiment: Symmetric di-methyl arginine image-based high content screen assay (SDMA assay), HCT116 MTAP-deleted; format: cell-based; details: SDMA assay; for EC50: Homo sapiens, HCT-116, 72 h, 3 days of treatment, cell line not given, taken as HCT116 MTAP-deleted, read-out: EC50 (SDMA assay); for EC50 selectivity (SDMA assay): taken as HCT116 WT versus MTAP-deleted
Summary of the method: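 Read-out: per-cell mean SDMA immunofluorescence (Alexa Fluor 488 secondary), cells segmented by DAPI on a high-content imager. Compound exposure in HCT116 MTAP-deleted cells lasted until fixation on Day 3; overnight 4° C primary anti-SDMA antibody staining.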

[2] = test system: HCT116 MTAP-deleted cells; experiment: Cell viability assay (CellTiter-Glo, 7 days), HCT116 MTAP-deleted; details: Homo sapiens, HCT-116, 168 h
Method: Control compounds were analyzed in parallel each time for quality control.
In Brief, on Day −1, a serial dilution of stock compounds in DMSO was performed using BioMek liquid handlers and dispensed using Echo acoustic dispenser into 384 well plates. Both tool compounds and sample compounds were spotted in the same plate for a dose response of PRMT5 inhibitors. Compound plates were stored as frozen until the cells were ready for seeding.
On Day 0, 100 HCT WT or HCT116 MTAP-deleted cells were seeded in compound-containing 384 well plates (50 μl per well) in RPMI 1640 media supplemented with 10% heat inactivated fetal bovine serum, Glutamax and penicillin streptomycin using EL460 liquid dispenser 5 μl cassette (BioTek, part no. 7170011). After equilibrating the plate in room temperature, the cells were incubated for 7 days inside the sealed incubator set at 37 °C with 90% humidity and 5% CO2.
On Day 7, the viability of cells was measured using a CTG assay kit (CellTitre-Glo; Promega cat no. G7573). Shortly, 40 μl per well of luminescent cell viability assay reagent were dispensed using EL460 liquid dispenser 5 μl cassette. CTG luminescence signal was measured using an EnVision plate reader (PerkinElmer) in accordance with manufacturer's instruction. The CC50 values for each compound after 7 days of treatment were calculated using 4 parameter non-linear logistical curve fit.

| Structure (SMILES) | EC50 [1] | EC50 selectivity (SDMA assay) [1] | CC50 [2] |
| --- | --- | --- | --- |
| Cn1ncc2c(N)nc3ccc(C(=O)N(Cc4nc5ccccc5s4)N4CCCC4=O)cc3c21 [Example 65, 4-amino-N-(1,3-benzothiazol-2-ylmethyl)-1-methyl-N-(2-oxopyrrolidin-1-yl)pyrazolo[4,3-c]quinoline-8-carboxamide] | < 1 nM | 149 | < 100 nM |
| Cn1ncc2c(N)nc3ccc(C(=O)N(Cc4ccc(C(C)(C)O)nc4)N4CCCCC4=O)cc3c21 [Example 66, 4-amino-N-[[6-(1-hydroxy-1-methyl-ethyl)-3-pyridyl]methyl]-1-methyl-N-(2-oxo-1-piperidyl)pyrazolo[4,3-c]quinoline-8-carboxamide] | > 5 nM | 281 | 100 to 1000 nM |
| COc1cc(C(F)(F)F)ccc1CN(C(=O)c1ccc2nc(N)c3cnn(C)c3c2c1)N1CCCCC1=O [Example 67, 4-amino-N-[[2-methoxy-4-(trifluoromethyl)phenyl]methyl]-1-methyl-N-(2-oxo-1-piperidyl)pyrazolo[4,3-c]quinoline-8-carboxamide] | < 1 nM | 25 | < 100 nM |
| CN(C)N(Cc1ccc(C(F)(F)F)cn1)C(=O)c1ccc2nc(N)c3cscc3c2c1 [Example 73, 4-amino-N′,N′-dimethyl-N-((5-(trifluoromethyl)pyridin-2-yl)methyl)thieno[3,4-c]quinoline-8-carbohydrazide] | > 5 nM | 39 | 100 to 1000 nM |
| CC(c1ccc(C(F)(F)F)cn1)N(C(=O)c1ccc2nc(N)c3cscc3c2c1)N(C)C (stereo not drawn) [Example 74, 4-amino-N′,N′-dimethyl-N-(1-(5-(trifluoromethyl)pyridin-2-yl)ethyl)thieno[3,4-c]quinoline-8-carbohydrazide] | > 5 nM | >71 | 100 to 1000 nM |

Further lines, with some results ahead:

| EC50 [1] | EC50 selectivity (SDMA assay) [1] | Structure (SMILES) | CC50 [2] |
| --- | --- | --- | --- |
| 1 to 5 nM | 304 | CC(=O)N(C)N(Cc1ccc(C(F)(F)F)cn1)C(=O)c1ccc2nc(N)c3ccccc3c2c1 [Example 68, N′-acetyl-6-amino-N′-methyl-N-[[5-(trifluoromethyl)-2-pyridyl]methyl]phenanthridine-2-carbohydrazide] | 100 to 1000 nM |
| 1 to 5 nM | 142 | CC(=O)N(C)N(Cc1ccc(C(F)(F)F)cn1)C(=O)c1ccc2nc(N)c3sncc3c2c1 [Example 69, N′-acetyl-4-amino-N′-methyl-N-[[5-(trifluoromethyl)-2-pyridyl]methyl]isothiazolo[5,4-c]quinoline-8-carbohydrazide] | 100 to 1000 nM |
| 1 to 5 nM | 11 | CC(=O)N(C)N(Cc1ccc(C(F)(F)F)cn1)C(=O)c1cc2c3c(c(N)nc2cc1F)COC3 [Example 70, N′-acetyl-4-amino-7-fluoro-N′-methyl-N-[[5-(trifluoromethyl)-2-pyridyl]methyl]-1,3-dihydrofuro[3,4-c]quinoline-8-carbohydrazide] | < 100 nM |
| 1 to 5 nM | 59 | CC(=O)N(C)N(Cc1ccc(C(F)(F)F)cn1)C(=O)c1ccc2nc(N)c3c(c2c1)CO[C@@H]3C [Example 71, (3R)—N′-acetyl-4-amino-N′,3-dimethyl-N-[[5-(trifluoromethyl)-2-pyridyl]methyl]-1,3-dihydrofuro[3,4-c]quinoline-8-carbohydrazide] | < 100 nM |
| 1 to 5 nM | 142 | CC(=O)N(C)N(Cc1ccc(C(F)(F)F)cn1)C(=O)c1ccc2nc(N)c3cnccc3c2c1 [Example 72, N′-acetyl-5-amino-N′-methyl-N-((5-(trifluoromethyl)pyridin-2-yl)methyl)benzo[c][2,7]naphthyridine-9-carbohydrazide] | 100 to 1000 nM |
| < 1 nM | 68 | CN(C1CC1)N(Cc1ccc(C(F)(F)F)cn1)C(=O)c1ccc2nc(N)c3cnn(C)c3c2c1 [Example 75, 4-amino-N′-cyclopropyl-N′,1-dimethyl-N-((5-(trifluoromethyl)pyridin-2-yl)methyl)-1H-pyrazolo[4,3-c]quinoline-8-carbohydrazide] | < 100 nM |
